Assay results as given in US20060281798A1, “Methods of using thiazolidinedithione derivatives” (QLT Inc., priority 2002, published 2006).

Experiments:
Format in all cases: cell-based
PC3 Cells = assay: Cell proliferation (3H-thymidine incorporation), PC3; details: Homo sapiens, PC-3, 24 hours
Text: (§1) This procedure (Jelinkova, R. B. et al., “Antiproliferative effect of a lectin- and anti-Thy-1.2 antibody-targeted HPMA copolymer-bound doxorubicin on primary and metastatic human colorectal carcinoma and on human colorectal carcinoma transfected with the mouse Thy-1.2 gene”, Bioconjug. Chem. (2000, September-October), Vol. 11, No. 5, pp. 664-73) is used to assess the effect compounds have on various cell lines with respect to proliferation. The rate of anchorage-independent growth of various tumor cells is quantified by measuring the amount of free isotopic thymidine that has been incorporated into the cells over a period of time. The effect of any compound to inhibit the proliferation of various tumor cells could be used as an indication of its ability to prevent disease progression in cancer.
(§2) Cultured tumour cells are harvested cells as per normal procedures: i.e. trypsinize, centrifuge and count cells. […]
(§3) After incubation, plates are observed under the microscope for obvious cell death, abnormal cell shape, crystal formation of the compound, etc. […] Finally, 100 μL of scintillation fluid is added to each well and the plates are counted in a Wallac 1450 Microbeta™ counter according to user manual instructions.
(§4) The amount of inhibition is determined by the following formula: % inhibition=100−[(AVG treatment−AVG positive control)/[…]]

[1] = tested on: PC3 cells, PTPN12 mouse embryonic fibroblasts (MEFs); assay: Cell migration in a Boyden chamber; details: PC-3, cell line of Table 2 not stated
Text: A range of cell lines are used in this assay, particularly the prostate cancer cell line PC3 and PTPN12 mouse embryonic fibroblasts (MEFs). The role of PTPN12 in migration was established based on the observations of PTPN12 negative MEFs. Cell adhesion and migration are dynamic biological activities involving the assembly and disassembly of a large number of extracellular and intracellular molecules, for example, actin, which are regulated in turn by protein phosphorylation. […] Migration is reduced in PTPN12 knock-out MEFs. By extension, a PTPN12 inhibitor should reduce cell migration in a Boyden chamber. Therefore, as a readout for PTPN12 activity, the following assay is designed to analyze cell migration in Boyden chambers. […]
For tumour cell lines, stock cells (i.e. PC3 cells) are grown to 50-70% confluency in T175 flasks. […] Fluorescence of migrated cells is read in a Fluoroskan Ascent FL™ (or equivalent) with bottom reading at excitation/emission wavelength of 485/538 nm. Only those cells that have migrated through the pores of the FluoroBlok™ membrane will be read. […]
Data is expressed as fluorescence unit (FU) from the sum of middle 25 areas per 24-well or as percentage of migration inhibition by following formula: % of invasion inhibition=100−FU of compound treated cell invasion/FU of DMSO treated cell invasion times 100. […]

H460 Cells = assay: Cell proliferation (3H-thymidine incorporation), H460; details: Homo sapiens, NCI-H460, 24 hours
Text: as §1, §2, §3, §4

`S=C1NC(=S)C(=Cc2ccc(-c3ccc(Br)cc3)o2)S1` [5-[5-(4-Bromophenyl)-furan-2-ylmethylene]-thiazolidine-2,4-dithione] was tested, and the inhibition at 50 µM (PC3 Cells) was 15%, the inhibition at 25 µM [1] was 65% and the inhibition at 50 µM (H460 Cells) was 89%.
